{"source": "patent US11647710B2", "about": "“Method for preparation of soybean leaf having high content of isoflavone derivative in dark condition and soybean leaf having high content of isoflavone derivative prepared thereby” (INDUSTRY-ACADEMIC COOPERATION FOUNDATION GYEONGSANG …, priority 2019, dated 2023)", "origin": "cited, not measured here", "target": "ER-beta (estrogen receptor beta) (Rattus norvegicus, UniProt Q62986)", "sequence (Q62986 whole entry)": "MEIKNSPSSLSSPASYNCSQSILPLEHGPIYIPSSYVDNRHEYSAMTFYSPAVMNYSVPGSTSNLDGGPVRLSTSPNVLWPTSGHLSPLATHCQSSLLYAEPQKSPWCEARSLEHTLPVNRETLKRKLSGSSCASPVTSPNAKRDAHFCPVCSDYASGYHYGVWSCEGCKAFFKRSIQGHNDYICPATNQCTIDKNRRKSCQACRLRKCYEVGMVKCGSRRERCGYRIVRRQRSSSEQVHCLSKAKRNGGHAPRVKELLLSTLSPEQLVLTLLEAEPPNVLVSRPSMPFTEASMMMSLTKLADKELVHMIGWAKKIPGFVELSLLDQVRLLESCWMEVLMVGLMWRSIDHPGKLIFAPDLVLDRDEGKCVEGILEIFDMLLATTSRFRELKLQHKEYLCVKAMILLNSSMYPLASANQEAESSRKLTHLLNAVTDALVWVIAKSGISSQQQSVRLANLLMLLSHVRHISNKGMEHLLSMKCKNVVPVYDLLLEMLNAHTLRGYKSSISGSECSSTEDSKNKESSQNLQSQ", "settings": "Endocrinology 1997, 863; cited from earlier work"}
{"smiles": "O=c1c(-c2ccc(O)cc2)coc2cc(O)ccc12", "note": "[daidzein]", "values": [{"measurement": "affinity for ER-beta", "value": "high affinity"}]}
